Consider 4 compounds from patent US11571412B2, “Thromboxane receptor antagonists in AERD/asthma” (Cumberland Pharmaceuticals Inc., priority 2015, dated 2023).

One data set addresses CYP3A4 (Homo sapiens, UniProt P08684). The settings on record: cited from earlier work.
A further data set addresses CYP2C9 (Homo sapiens, UniProt P11712). Particulars: cited from earlier work.
In a further data set the test system is Df-treated ptges−/− mice. The settings on record: cited from earlier work; for Reaction to aspirin (peak change in RL in response to Lys-ASA challenge): two doses of antagonist prior to challenge with Lys-ASA.
Data set [1] has as its system TP receptor-induced bronchospasm. Particulars: rats; cited from earlier work.
The test system of data set [2] is patients with a history of aspirin exacerbated respiratory disease (AERD). Description: Multicenter, double-blind, randomized, placebo-controlled trial of oral ifetroban with aspirin challenge/desensitization (AERD Phase 2a). The settings on record: for Incidence of an AIR by Aspirin Dose: AIR population n = 10; for NIFR ≥25% decrease / NIFR ≥25% increase / TNSS ≥25% decrease / TNSS ≥25% increase: ifetroban 200 mg/day oral; for Rescue Medications Mean (SD): to resolve an AIR. The class given is in vivo, human. The text has this:
Example IV is a multicenter, double-blind, randomized, placebo-controlled trial to determine the safety of oral ifetroban in patients with a history of aspirin exacerbated respiratory disease (AERD).
The eligible subjects were randomized (3:1 active to placebo) in this 7-day study which consisted of a screening, treatment and follow-up period. Any subject receiving at least a partial dose of IMP were not replaced and included in the study analysis. Of 19 subjects enrolled and randomized to study treatment, 14 (74%) were randomized to the ifetroban group and 5 (26%) to the placebo group. Of those 14 randomized to ifetroban, 12 (86%) subjects were treated and 100% of those treated completed treatment. Of 5 subjects randomized to placebo, 4 (80%) started treatment and 100% completed treatment. All treated subjects were analyzed for safety and efficacy variables.
All individuals with AERD will experience a clinical reaction to aspirin, most often at a dose of 81 mg or below. By utilizing a modified Scripps Institute protocol (Hope, Woessner, Simon, & Stevenson, 2009), limiting the study to individuals with stable asthma and no history of life-threatening reaction to COX inhibitors and administering the cysteinyl leukotriene receptor 1 (Cys-LT1) antagonist montelukast to all individuals undergoing the challenge/desensitization, the procedure could safely be done in an ambulatory/outpatient clinic setting. […] Thus, montelukast substantially increases the safety of aspirin challenge/desensitization and it is the standard of care to use montelukast as a pre-treatment for subjects with AERD undergoing a planned aspirin challenge/desensitization.
The primary objective of this study was to determine the safety of oral ifetroban compared to placebo as measured by a ≥20% decrease in Forced Expiratory Volume in 1 second (FEV1) compared to baseline following a dose of Investigational Medicinal Product (IMP) (Study Day 1) or following a dose of IMP but prior to initiation of the aspirin challenge. Secondary objectives were: (i) to determine the safety of oral ifetroban compared to placebo as measured by peak Nasal Inspiratory Flow Rate (NIFR) compared to baseline following a dose of IMP (Study Day 1) or following a dose of IMP but prior to initiation of the aspirin challenge; (ii) to determine the safety of oral ifetroban compared to placebo as measured by the change in Total Nasal Symptom Score (TNSS) compared to baseline following a dose of IMP (Study Day 1) or following a dose of IMP but prior to initiation of the aspirin challenge; (iii) to determine the safety and tolerability of oral ifetroban compared to placebo as measured by treatment-emergent adverse events; (iv) to determine the efficacy of oral ifetroban compared to placebo in decreasing the respiratory reaction to oral aspirin as measured by the change in FEV1 compared to baseline during the aspirin challenge; (v) to determine the efficacy of oral ifetroban compared to placebo in decreasing the respiratory reaction to oral aspirin as measured by the change in NIFR compared to baseline during the aspirin challenge; (vi) to determine the efficacy of oral ifetroban compared to placebo in decreasing the respiratory reaction to oral aspirin as measured by the change in TNSS compared to baseline during the aspirin challenge; (vii) to determine the efficacy of oral ifetroban compared to placebo in decreasing the respiratory reaction to oral aspirin as measured by the amount of rescue medication during the aspirin challenge; (viii) to determine the efficacy of oral ifetroban compared to placebo in decreasing respiratory sensitivity to COX-1 inhibition as measured by the aspirin desensitization dose level; and (ix) to determine the efficacy of oral ifetroban compared to placebo as measured by the number of asthmatic reactions during the Treatment Period. […]

The subject of data set [3] is TP receptor-induced bronchospasm. The settings on record: guinea pigs; cited from earlier work.
For a further data set, the system named is guinea pig trachea. Particulars: in vitro; cited from earlier work.
Setting [4] is: Phase A, n = 12, listed as ifetroban.
The mark [5] stands for this setting: Phase B (aspirin challenge), n = 12.
[6] abbreviates: aspirin desensitization, n = 12.
[7] abbreviates: column headed Phase C (overall, during the study), n = 12.
Where [8] appears, read: subjects that experienced an AIR.
Where [9] appears, read: subjects that experienced an AIR, listed as ifetroban.

Entries after “also recorded” stand apart in the source; their conditions may differ. Read-outs that look alike come from different tables or passages of the source.

Sequence of CYP3A4 (P08684 whole entry): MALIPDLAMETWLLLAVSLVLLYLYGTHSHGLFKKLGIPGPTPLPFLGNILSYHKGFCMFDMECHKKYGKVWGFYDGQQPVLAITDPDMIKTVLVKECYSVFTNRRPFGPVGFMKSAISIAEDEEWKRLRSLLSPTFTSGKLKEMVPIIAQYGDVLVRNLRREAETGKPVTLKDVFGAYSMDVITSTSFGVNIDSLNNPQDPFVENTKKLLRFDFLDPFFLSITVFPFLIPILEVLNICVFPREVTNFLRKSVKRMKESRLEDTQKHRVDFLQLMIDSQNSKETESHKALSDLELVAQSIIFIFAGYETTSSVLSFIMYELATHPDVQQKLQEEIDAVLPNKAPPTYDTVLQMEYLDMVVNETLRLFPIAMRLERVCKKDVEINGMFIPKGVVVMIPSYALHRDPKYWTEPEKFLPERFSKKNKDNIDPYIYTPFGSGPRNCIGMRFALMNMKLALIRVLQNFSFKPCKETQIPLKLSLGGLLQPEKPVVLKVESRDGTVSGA
Sequence of CYP2C9 (P11712 whole entry): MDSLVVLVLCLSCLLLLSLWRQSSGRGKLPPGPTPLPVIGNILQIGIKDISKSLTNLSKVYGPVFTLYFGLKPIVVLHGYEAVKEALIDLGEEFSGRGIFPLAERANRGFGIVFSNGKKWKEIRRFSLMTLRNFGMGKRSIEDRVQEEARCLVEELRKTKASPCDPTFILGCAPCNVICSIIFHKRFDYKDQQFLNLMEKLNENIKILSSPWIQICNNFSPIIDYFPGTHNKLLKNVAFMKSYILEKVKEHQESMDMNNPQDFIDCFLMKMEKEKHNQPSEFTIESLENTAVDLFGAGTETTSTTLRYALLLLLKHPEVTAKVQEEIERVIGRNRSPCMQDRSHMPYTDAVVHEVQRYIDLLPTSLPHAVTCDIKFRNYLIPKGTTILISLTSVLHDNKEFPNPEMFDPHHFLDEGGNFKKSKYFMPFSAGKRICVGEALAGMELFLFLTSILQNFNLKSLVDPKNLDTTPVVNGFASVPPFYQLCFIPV

As to `CC(C)(O)c1ccccc1CC[C@@H](SCC1(CC(=O)O)CC1)c1cccc(/C=C/c2ccc3ccc(Cl)cc3n2)c1` [montelukast], the “Inhibition of CYP3A4” value on CYP3A4 is recorded as “does not inhibit”. Further, at CYP2C9, the “Inhibition of CYP2C9” value is given as “does not inhibit”.

As for `CC(c1ccccc1)C(O)/C=C/C1C2CCC(O2)C1C/C=C\CCCC(=O)O` (stereo not drawn) [[1S-(1α, 2α(Z), 3α(1E, 3S*, 4R*), 4α)]]-7-[3-(3-hydroxy-4-phenyl-1-pentenyl)-7-oxabicyclo[2.2.1]hept-2-yl]-5-heptenoic acid], the “Rise in cys-LTs (BAL fluid)” value in the data set with Df-treated ptges−/− mice (ptges−/− mice, Lys-ASA challenge) is recorded as “completely blocked”. In addition, the “Reaction to aspirin (peak change in RL in response to Lys-ASA challenge)” value in the data set with Df-treated ptges−/− mice (ptges−/− mice) is “completely blocked”; with Df-treated ptges−/− mice (ptges−/− mice, listed as SQ29.548) it was “attenuates aspirin sensitivity”.

As to `CC(c1cc2ccccc2s1)N(O)C(N)=O` (centres unmarked) [zileuton], the “Increase in airway resistance on inhalation of Lysine aspirin” value in the data set with Df-treated ptges−/− mice (Df-treated ptges−/− mice) is on record as “sensitive to interference”.

As for `CCCCCNC(=O)c1coc([C@H]2[C@@H](Cc3ccccc3CCC(=O)O)[C@@H]3CC[C@H]2O3)n1` [Ifetroban, [1S-(1α,2α,3α,4α)]-2-[[3-[4-[(Pentylamino)carbonyl]-2-oxazolyl]-7-oxabicyclo[2.2.1]hept-2-yl]methyl]-benzenepropanoic acid], in data set [1], the TP receptor-induced bronchospasm result is “both preempt and reverse”. Moreover, the “Difference in mean rescue medications, placebo versus ifetroban” value in data set [2] (7.33 (placebo) versus 2.90 (ifetroban) to resolve an AIR) came to 2.5 fold. In addition, in data set [2] (AIR subjects n = 10), the “Severity of an AIR: All Symptoms (total number)” value was 43. In data set [2] (Aspirin Dose 30 mg), the “Incidence of an AIR by Aspirin Dose” value is on record as 0 No. of Subjects (%). Besides, the “Incidence of an AIR by Aspirin Dose” value in data set [2] (Aspirin Dose 60 mg) is given as 5 (50) No. of Subjects (%). In addition, in data set [2] (Aspirin Dose 100 mg), the “Incidence of an AIR by Aspirin Dose” value is reported as 5 (50) No. of Subjects (%). Also, the “Incidence of an AIR by Aspirin Dose” value in data set [2] (Aspirin Dose 150 mg) is given as 0 No. of Subjects (%). In data set [2] (Aspirin Dose 325 mg), the “Incidence of an AIR by Aspirin Dose” value is recorded as 0 No. of Subjects (%). Also, in data set [2] (Phase A, n = 12), the “NIFR ≥25% decrease” value is reported as 2(17) No. of Subjects (%), the “NIFR ≥25% increase” value is 3(25) No. of Subjects (%), the “TNSS ≥25% decrease” value is on record as 1(8) No. of Subjects (%) and the “TNSS ≥25% increase” value is 0 No. of Subjects (%). In data set [2] (setting [4]), the “TNSS ≥25% decrease” value is recorded as 1 (8%) No. of Subjects (%) and the “TNSS ≥25% increase” value was “No subject”. In data set [2] (setting [5]), the “NIFR ≥25% decrease” value is reported as 4(33) No. of Subjects (%), the “NIFR ≥25% increase” value was 7(58) No. of Subjects (%), the “TNSS ≥25% decrease” value is 2(17) No. of Subjects (%) and the “TNSS ≥25% increase” value was 3(25) No. of Subjects (%). In data set [2] (Phase B (aspirin challenge), n = 12, listed as ifetroban), the “TNSS ≥25% decrease” value is given as 2 (17%) No. of Subjects (%). Moreover, in data set [2] (aspirin challenge), the “Average number of symptoms per AIR compared to placebo” value is “comparable between treatment groups”; the “Bronchial reaction (<20% decrease in FEV1, wheezing, chest tightness) as part of the AIR compared to placebo” value is “at a similar rate”; the “Ocular manifestation compared to placebo” value is given as “seems to trend toward the placebo arm more often than on the ifetroban arm”; the “Upper respiratory effect (rhinorrhea, nasal obstruction, sneezing) compared to placebo” value was “equally as common between treatment groups”. Also, in data set [2] (aspirin challenge (phase B)), the “Number of rescue medications compared to placebo (trend)” value is listed as “apparent trend toward fewer rescue medications in favor of the ifetroban group” and the “Total Number of Rescue Medications” value worked out at 29. Besides, in data set [2] (setting [6]), the “Aspirin-induced Reaction (AIR): No” value was 2 (17) No. of Subjects (%) and the “Aspirin-induced Reaction (AIR): Yes” value is on record as 10 (83) No. of Subjects (%). Further, in data set [2] (between treatment groups), the “Proportion of subjects with worsening NIFR or TNSS compared to placebo” value is on record as “no clear trends were observed; also recorded: no appreciable difference was observed”. Moreover, in data set [2] (setting [7]), the “NIFR ≥25% decrease” value is on record as 5(42) No. of Subjects (%), the “NIFR ≥25% increase” value is reported as 9(75) No. of Subjects (%), the “TNSS ≥25% decrease” value was 2(17) No. of Subjects (%) and the “TNSS ≥25% increase” value is on record as 3(25) No. of Subjects (%). Further, in data set [2] (column headed Phase C (overall, during the study), n = 12, listed as ifetroban), the “NIFR ≥25% increase” value is given as 9 (75%) No. of Subjects (%). Also, the “≥20% decrease in FEV1 (primary endpoint)” value in data set [2] (during IMP treatment or the aspirin desensitization process, 200 mg/day) is “did not cause a ≥20% decrease in FEV1”. In data set [2] (during both phase A and phase B), the “Subjects with ≥25% decrease in peak NIFR during both phase A and phase B” value was “One”. Moreover, the “Improvements to NIFR and TNSS compared to placebo” value in data set [2] (during phase A and phase B) is reported as “observed trend in favor of the ifetroban group toward greater improvements”. The “Subjects with ≥50% or 75% increase or decrease in TNSS” value in data set [2] (during the study) is “No one”. Also, the “AEs reported compared to placebo” value in data set [2] (ifetroban at 200 mg/day) is given as “no increase in AEs”. The Safety and tolerability entry in data set [2] (ifetroban at 200 mg/day, subjects with a history of AERD) was “well tolerated and safe”. Also, the “Symptoms of aspirin desensitization in AERD patients” value in data set [2] (ifetroban at a dose of 200 mg/day) was “may be diminished”. Moreover, in data set [2] (n = 10), the “Severity of an AIR: <20% decrease in FEVI (number)” value is reported as 9; the “Severity of an AIR: <20% decrease in FEVI Mean” value is given as 0.9; the “Severity of an AIR: All Symptoms Median” value turned out to be 4; the “Severity of an AIR: All Symptoms Min, Max” value is 3.7. In data set [2] (n = 10), the “Severity of an AIR: Lower Respiratory (number of symptoms)” value is listed as 13, the “Severity of an AIR: Lower Respiratory Mean” value came to 1.3, the “Severity of an AIR: Ocular (number of symptoms)” value was determined as 5 and the “Severity of an AIR: Ocular Mean” value is 0.5. For the same compound, in data set [2] (n = 10), the “Severity of an AIR: Upper Respiratory (number of symptoms)” value is 25 and the “Severity of an AIR: Upper Respiratory Mean” value is 2.5. For the same compound, the “Severity of an AIR: All Symptoms Mean(SD)” value in data set [2] (per AIR, n = 10) is 4.3(1.34). Further, the “Asthmatic reactions reported or rescue medications used” value in data set [2] (phase A prior to aspirin initiation) was “No asthmatic reactions were reported or rescue medications used”. Further, the “Initial reactions occurring at the 60-mg aspirin dose” value in data set [2] (provoking aspirin dose 60 mg) was 50%. In addition, in data set [2] (setting [8]), the “Required Rescue Medication: No” value is 1 (10) No. of Subjects (%), the “Required Rescue Medication: Yes” value is 9 (90) No. of Subjects (%), the “Rescue Medications Max” value came out at 7 and the “Rescue Medications Median” value worked out at 3. Besides, in data set [2] (setting [8]), the “Rescue Medications Min” value turned out to be 0 and the “Rescue Medications Mean (SD)” value was 2.90 (2.02). For the same compound, in data set [2] (setting [9]), the “Required Rescue Medication: No” value is listed as 1 (10%) No. of Subjects (%) and the “Rescue Medications Mean (SD)” value is reported as 2.90. For the same compound, the “Rescue medication outside the clinic for an asthmatic reaction” value in data set [2] (throughout the 7-day study period) is reported as “no subject required rescue medication outside the clinic”. The “Mean changes from baseline FEV1” value in data set [2] (throughout the treatment period) was “below 20%”. Also, in data set [3], the TP receptor-induced bronchospasm entry was “both preempt and reverse”. In the data set on guinea pig trachea, the “Contraction of guinea pig trachea elicited by PGD2” value is “inhibit contraction”.
